Source: patent EP0066456B1, “N-substituted azaheterocyclic carboxylic acids and their esters” (SMITHKLINE BECKMAN CORPORATION, priority 1981, dated 1982)

Tested on: contralateral rotation in rats induced by unilateral injection of GABA into the pars reticulata of the substantia nigra
Assay: potentiation of GABA-induced contralateral rotation in rats (unilateral GABA injection into pars reticulata of substantia nigra)
Type: in vivo
Conditions: systemic administration, doses from 2.5 to 40.0 mg/kg, I.P.
Method: Compounds active in the in vitro test described above are tested by systemic administration for their ability to penetrate the central nervous system and potentiate the rotation induced by GABA.

## Cl.O=C(O)C1CCCN(CCC=C(c2ccccc2)c2ccccc2)C1 (stereo not shown) [1 - (4,4 - diphenyl - 3 - butenyl) - 3 - piperidinecarboxylic acid hydrochloride]
  potentiation of contralateral rotation induced by GABA: significantly active
